The assay addresses T1, ALI1 (AHL-Priming Protein 1; AtGlcAK2, formerly AtGALK2) (Arabidopsis thaliana, UniProt Q9LY82).
T1 construct: gene GLCAK2; full ORF amplified from Col-0 cDNA, pDEST17, N-terminal 6xHis kept, expressed in E. coli BL21, Ni-NTA purified; GST-ALI1 also made for the biosensor assay
T1 sequence (Q9LY82 1-366): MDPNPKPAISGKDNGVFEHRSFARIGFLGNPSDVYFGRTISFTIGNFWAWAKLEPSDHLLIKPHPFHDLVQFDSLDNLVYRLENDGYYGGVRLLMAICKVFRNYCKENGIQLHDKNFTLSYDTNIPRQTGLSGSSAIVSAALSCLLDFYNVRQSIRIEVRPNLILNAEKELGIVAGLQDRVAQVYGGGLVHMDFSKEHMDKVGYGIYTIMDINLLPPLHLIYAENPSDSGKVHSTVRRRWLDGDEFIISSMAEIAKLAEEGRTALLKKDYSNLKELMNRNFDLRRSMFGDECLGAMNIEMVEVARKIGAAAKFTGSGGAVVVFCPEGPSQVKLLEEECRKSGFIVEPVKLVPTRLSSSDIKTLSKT
Nature of the assay: sequestration of free ligand read by biosensor E. coli LuxCDABE luminescence. Type of assay: binding. The conditions noted are these: 6 nmol protein, 0-18 nmol ligand, overnight; indirect assay, MST and nanoDSF by the same authors did not confirm. On the technique in general: Differential scanning fluorimetry follows unfolding on heating by fluorescence.

Take `CCCCCCCCCCCC(=O)CC(=O)N[C@H]1CCOC1=O` [oxo-C14-HSL]: the “sequestration of free ligand read by biosensor E. coli LuxCDABE luminescence” value was “equivalently able to sequestrate oxo-C14-HSL molecule from the solution”.

For the origin of these results see article PMC9721052, “AHL-Priming Protein 1 mediates N-3-oxo-tetradecanoyl-homoserine lactone priming in Arabidopsis” (BMC Biology, 2022).
